Test results taken from ChEMBL document CHEMBL1201862, “PubChem BioAssay data set” (2004).
The source made the active and inactive calls.

Tests used:
HeLa = test: Cytotoxicity counterscreen assay for transcriptional activators of heat shock protein 70 (Hsp70). [Related pubchem assays: 1203, 1252 ]; assay type: functional; conditions: Homo sapiens;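 further: cells exposed to compound for 16 hours before readout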
INS1 = test: beta cell apoptosis inhibitors, cytokine rescue, dose response, luminescence, retest (AID 449756); assay type: functional, cell-based; conditions: Rattus norvegicus;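 further: cell death triggered by IL-1 beta plus TNF-alpha plus IFN-gamma mixture; protective hits raise ATP signal compared with cytokine alone wells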
Nonstructural protein 1 = Nonstructural protein 1 (Influenza A virus, UniProt Q194T2); assay type: functional, Influenza A virus (A/California/07/2009(H1N1))
Chain of Nonstructural protein 1 (Q194T2 whole entry): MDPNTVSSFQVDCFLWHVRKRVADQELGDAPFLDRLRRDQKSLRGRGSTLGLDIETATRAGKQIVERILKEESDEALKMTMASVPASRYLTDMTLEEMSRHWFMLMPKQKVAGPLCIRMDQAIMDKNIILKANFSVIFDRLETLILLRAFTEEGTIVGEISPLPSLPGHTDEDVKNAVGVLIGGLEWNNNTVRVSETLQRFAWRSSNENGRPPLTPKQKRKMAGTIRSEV

[1] = C. albicans growth with fluconazole, confirmation, fluorescence, retest (AID 2467); assay type: functional, cell-based
[2] = NIH-3T3 fibroblast cytotoxicity, dose response, cytotoxicity control, cell-based, fluorescence, Alamar Blue, secondary assay (AID 2327); assay type: functional;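 further: NIH-3T3 mouse fibroblasts cultured with fluconazole at 8 µg/mL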
[3] = enhancers of respiration in Yfh1-depleted yeast, dose response, Friedreich's ataxia, plus single-dose screen (AID 1465); assay type: functional;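 further: yeast depleted of Yfh1p frataxin homolog grown on glycerol needing respiration; WST-1 tetrazolium dye reduction as measure of cellular dehydrogenase metabolic activity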
[4] = molecular target: T1, Calpain-2 catalytic subunit (Sus scrofa, UniProt P43367); test: pig calpain II inhibitor potency, dose response, biochemical, fluorogenic peptide substrate (AID 1420); assay type: functional
T1 sequence (P43367 whole entry): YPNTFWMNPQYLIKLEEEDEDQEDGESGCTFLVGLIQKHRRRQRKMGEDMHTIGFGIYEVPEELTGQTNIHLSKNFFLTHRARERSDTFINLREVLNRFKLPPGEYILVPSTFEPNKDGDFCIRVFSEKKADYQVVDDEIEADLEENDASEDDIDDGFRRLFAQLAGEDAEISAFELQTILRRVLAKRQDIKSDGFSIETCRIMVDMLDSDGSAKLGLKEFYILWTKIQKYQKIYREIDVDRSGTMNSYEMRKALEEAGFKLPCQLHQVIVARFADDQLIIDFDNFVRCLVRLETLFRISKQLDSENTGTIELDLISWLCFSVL

Ion channel NompC [5] = molecular target: T2, Ion channel NompC (Danio rerio, UniProt Q7T1G6); test: Late stage counterscreen for the probe development effort to identify selective agonists of the Transient Receptor Potential Channels 3 (TRPML3): fluorescence-based cell-based dose response assay for TRPN1 agonists.; assay type: functional
T2 sequence (Q7T1G6 whole entry): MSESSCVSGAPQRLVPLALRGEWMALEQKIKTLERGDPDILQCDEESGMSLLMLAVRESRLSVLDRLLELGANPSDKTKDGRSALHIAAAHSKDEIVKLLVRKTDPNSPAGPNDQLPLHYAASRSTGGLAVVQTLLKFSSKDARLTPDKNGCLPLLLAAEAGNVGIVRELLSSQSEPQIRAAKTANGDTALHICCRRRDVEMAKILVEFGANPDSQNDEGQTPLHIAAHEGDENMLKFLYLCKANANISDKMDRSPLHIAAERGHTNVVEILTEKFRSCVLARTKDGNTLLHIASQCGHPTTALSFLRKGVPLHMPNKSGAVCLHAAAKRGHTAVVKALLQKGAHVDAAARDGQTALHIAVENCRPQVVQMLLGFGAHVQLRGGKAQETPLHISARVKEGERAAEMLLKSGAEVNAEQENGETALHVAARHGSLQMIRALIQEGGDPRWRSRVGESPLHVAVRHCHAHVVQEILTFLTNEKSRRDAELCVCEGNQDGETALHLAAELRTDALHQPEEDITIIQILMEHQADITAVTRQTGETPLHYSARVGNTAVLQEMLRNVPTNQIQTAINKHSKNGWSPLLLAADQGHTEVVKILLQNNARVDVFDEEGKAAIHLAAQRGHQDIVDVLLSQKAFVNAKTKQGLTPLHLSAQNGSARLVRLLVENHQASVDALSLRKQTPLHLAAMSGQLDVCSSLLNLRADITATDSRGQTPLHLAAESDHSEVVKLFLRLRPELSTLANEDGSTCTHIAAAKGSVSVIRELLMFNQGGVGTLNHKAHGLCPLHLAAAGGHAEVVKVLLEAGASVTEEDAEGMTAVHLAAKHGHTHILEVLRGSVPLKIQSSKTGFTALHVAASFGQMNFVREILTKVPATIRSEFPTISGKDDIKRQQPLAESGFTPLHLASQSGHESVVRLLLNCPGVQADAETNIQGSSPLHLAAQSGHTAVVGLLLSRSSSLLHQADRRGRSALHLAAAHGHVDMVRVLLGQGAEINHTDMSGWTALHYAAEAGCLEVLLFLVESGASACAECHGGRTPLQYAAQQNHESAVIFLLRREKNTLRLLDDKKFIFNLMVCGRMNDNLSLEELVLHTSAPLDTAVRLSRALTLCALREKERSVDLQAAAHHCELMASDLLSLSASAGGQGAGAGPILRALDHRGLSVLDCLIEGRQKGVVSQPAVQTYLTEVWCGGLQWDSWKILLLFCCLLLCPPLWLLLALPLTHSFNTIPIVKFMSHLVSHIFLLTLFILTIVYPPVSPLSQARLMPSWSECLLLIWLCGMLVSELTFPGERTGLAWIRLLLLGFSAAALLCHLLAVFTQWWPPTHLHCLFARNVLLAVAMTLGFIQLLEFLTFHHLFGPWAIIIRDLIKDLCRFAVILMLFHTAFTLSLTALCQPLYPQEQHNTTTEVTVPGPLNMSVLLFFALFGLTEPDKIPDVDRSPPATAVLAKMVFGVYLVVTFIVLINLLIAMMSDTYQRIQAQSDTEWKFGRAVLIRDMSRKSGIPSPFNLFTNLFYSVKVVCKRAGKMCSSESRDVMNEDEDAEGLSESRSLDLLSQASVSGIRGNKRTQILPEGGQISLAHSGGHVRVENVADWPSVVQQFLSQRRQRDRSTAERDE

Ion channel NompC [6] = molecular target: T2, Ion channel NompC; test: Fluorescence counterscreen assay for TRPML3 agonists: dose response cell-based high-throughput screening assay to identify agonists of the transient receptor potential channel N1 (TRPN1). [Related pubchem assays: 1526, 1424, 1448 ]; assay type: functional
Mucolipin-3 = Mucolipin-3 (Homo sapiens, UniProt Q8TDD5); test: Dose response cell-based high-throughput screening assay for agonists of the transient receptor potential channel ML3 (TRPML3). [Related pubchem assays: 1526, 1424, 1448 ]; assay type: functional
Chain of Mucolipin-3 (Q8TDD5 whole entry): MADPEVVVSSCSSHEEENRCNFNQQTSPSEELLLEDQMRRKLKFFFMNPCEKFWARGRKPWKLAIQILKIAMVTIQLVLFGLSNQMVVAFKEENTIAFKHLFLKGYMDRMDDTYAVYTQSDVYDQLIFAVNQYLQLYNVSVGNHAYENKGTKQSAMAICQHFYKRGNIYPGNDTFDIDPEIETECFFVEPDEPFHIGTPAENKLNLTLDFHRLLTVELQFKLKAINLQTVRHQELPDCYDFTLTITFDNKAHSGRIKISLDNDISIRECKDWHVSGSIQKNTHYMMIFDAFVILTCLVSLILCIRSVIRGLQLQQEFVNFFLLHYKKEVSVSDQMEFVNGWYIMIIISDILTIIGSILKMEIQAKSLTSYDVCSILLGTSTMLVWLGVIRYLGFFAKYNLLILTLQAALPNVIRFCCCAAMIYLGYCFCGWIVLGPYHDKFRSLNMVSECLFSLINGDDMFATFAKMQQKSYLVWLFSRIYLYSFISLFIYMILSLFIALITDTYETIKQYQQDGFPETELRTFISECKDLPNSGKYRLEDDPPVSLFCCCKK

[7] = molecular target: T3, Replicative DNA helicase DnaB (Mycobacterium tuberculosis, UniProt P9WMR3); test: DnaB intein splicing inhibitors, dose response, biochemical, cell-free fluorescence (AID 449749); assay type: functional
T3 sequence (P9WMR3 whole entry): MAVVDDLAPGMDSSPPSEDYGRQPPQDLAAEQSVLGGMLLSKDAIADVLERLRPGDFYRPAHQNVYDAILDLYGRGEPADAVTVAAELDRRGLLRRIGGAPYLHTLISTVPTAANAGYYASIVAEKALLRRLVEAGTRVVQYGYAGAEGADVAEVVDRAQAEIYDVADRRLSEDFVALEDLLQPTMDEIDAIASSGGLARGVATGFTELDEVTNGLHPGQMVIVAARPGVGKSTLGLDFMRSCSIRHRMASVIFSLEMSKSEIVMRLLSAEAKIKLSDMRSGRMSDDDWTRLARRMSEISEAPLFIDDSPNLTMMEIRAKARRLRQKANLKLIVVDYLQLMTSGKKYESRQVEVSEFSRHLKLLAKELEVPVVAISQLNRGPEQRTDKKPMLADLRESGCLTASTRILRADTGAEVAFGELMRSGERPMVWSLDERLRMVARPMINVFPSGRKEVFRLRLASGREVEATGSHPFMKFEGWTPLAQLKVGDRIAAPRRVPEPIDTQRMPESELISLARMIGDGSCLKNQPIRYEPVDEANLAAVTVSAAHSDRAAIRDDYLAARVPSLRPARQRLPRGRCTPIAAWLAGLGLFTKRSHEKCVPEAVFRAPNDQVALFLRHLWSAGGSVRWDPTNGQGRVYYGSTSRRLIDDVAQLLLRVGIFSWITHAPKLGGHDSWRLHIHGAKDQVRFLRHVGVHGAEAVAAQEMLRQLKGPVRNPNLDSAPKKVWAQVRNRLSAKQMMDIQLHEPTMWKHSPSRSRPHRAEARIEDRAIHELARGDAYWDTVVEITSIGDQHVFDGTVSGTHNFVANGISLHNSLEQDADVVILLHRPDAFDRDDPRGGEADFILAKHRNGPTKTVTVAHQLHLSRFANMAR

[8] = Luminescence Cell-Based Dose Retest to Confirm Inhibitors of Cancer Stem Cells. [Related pubchem assays (depositor defined):AID2717, AID2721]; assay type: functional; conditions: Homo sapiens
[9] = A Cell Based Secondary Assay To Explore Cytotoxicity of Compounds that Sensitize Mycobacterium Tuberculosis to Beta-Lactam Antibiotics.; assay type: functional
[10] = HIV-1 Env-mediated cell fusion inhibitors, dose response, CCR5-tropic Env (AID 2279); assay type: functional
Protein RecA = molecular target: T4, Protein RecA (Mycobacterium tuberculosis, UniProt P9WHJ3); test: Fluorescence Cell-Free Homogeneous Dose Retest to Identify Inhibitors of RecA-Intein Splicing Activity. [Related pubchem assays (depositor defined):AID2097, AID2223, AID489010, AID492950]; assay type: functional
T4 sequence (P9WHJ3 whole entry): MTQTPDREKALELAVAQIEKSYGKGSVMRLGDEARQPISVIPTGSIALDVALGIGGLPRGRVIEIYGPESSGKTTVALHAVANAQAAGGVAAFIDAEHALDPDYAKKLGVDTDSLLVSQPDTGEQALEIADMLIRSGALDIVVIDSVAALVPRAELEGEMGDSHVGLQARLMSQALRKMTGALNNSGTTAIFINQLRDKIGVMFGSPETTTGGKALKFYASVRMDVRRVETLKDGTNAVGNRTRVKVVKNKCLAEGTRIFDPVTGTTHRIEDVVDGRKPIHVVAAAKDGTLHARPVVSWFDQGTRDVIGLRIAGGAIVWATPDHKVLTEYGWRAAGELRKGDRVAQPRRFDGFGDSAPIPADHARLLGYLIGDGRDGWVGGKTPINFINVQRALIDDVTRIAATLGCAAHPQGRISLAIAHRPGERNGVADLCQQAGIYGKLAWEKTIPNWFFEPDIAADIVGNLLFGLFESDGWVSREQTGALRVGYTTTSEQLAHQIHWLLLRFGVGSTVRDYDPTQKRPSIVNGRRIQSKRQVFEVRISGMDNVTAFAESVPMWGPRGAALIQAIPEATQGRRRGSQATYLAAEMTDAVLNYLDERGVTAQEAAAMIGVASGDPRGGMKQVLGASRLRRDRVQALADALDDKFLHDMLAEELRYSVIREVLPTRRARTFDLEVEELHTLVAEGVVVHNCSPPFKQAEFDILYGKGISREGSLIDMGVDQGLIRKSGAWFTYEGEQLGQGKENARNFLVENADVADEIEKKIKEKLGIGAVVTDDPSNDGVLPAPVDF

[11] = molecular target: T5, Sentrin-specific protease 1 (Homo sapiens, UniProt Q9P0U3); test: potency of human SENP1 inhibitors, dose response, biochemical, kinetic FRET (AID 651697); assay type: functional; conditions: read-out: IC50_Mean
T5 sequence (Q9P0U3 whole entry): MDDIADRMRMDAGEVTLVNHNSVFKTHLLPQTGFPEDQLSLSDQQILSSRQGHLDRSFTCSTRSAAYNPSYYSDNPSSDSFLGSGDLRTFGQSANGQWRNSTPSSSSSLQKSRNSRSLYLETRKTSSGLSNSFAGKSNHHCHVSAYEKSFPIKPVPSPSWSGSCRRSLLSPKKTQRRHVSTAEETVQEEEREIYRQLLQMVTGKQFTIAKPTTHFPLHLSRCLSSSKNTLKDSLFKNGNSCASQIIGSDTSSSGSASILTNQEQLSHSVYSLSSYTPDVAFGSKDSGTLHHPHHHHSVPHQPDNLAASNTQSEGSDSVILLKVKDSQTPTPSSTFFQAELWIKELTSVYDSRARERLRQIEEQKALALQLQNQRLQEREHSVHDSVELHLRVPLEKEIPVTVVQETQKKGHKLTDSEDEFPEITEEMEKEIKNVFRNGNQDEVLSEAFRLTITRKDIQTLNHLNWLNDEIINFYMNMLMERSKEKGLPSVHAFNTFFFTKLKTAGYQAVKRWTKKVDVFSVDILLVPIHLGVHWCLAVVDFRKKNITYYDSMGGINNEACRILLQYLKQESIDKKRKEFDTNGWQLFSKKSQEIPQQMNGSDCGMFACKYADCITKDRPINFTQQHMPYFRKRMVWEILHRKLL

Insulin-degrading enzyme = molecular target: T6, Insulin-degrading enzyme (Homo sapiens, UniProt P14735); test: Dose Response: Fluorescence polarization-based cell-based high throughput dose response assay for inhibitors of insulin-degrading enzyme (IDE). [Related pubchem assays: 434962 (Primary screen (IDE inhibitors in singlicate)), 449730 (Counterscreen (Cytotoxicity in triplicate)), 435028 (Confirmation (IDE inhibitors in triplicate)), 434984 (Summary …; assay type: functional
T6 sequence (P14735 whole entry): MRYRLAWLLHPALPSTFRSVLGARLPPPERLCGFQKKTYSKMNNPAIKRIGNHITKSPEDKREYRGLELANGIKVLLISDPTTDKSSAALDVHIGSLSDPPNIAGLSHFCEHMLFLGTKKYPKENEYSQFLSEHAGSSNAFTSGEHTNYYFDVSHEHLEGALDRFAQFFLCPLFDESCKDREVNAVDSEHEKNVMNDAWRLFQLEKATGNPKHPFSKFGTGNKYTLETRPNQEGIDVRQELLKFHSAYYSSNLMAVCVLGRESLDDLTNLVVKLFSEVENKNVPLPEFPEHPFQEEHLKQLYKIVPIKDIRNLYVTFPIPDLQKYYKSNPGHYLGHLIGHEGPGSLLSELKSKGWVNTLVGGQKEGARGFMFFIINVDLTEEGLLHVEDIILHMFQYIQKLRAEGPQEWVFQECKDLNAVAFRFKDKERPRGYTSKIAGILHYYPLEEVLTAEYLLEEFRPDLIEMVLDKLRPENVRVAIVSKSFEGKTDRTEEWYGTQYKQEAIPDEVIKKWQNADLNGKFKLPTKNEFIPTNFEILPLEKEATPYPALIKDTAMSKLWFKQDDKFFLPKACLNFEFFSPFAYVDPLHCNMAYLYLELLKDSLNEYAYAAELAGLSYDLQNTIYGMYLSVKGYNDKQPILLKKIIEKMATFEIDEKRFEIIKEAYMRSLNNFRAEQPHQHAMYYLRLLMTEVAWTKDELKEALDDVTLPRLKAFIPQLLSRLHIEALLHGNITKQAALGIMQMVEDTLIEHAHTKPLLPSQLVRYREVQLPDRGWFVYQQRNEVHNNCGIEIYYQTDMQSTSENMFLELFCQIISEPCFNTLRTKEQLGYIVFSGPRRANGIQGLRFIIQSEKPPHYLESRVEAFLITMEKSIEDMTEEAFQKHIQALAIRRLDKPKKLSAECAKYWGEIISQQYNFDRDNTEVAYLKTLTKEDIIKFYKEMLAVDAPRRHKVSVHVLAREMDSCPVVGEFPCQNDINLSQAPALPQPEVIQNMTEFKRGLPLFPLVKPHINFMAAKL

[12] = Counterscreen for IDE inhibitors: Luminescence-based cell-based high throughput dose response assay to identify compounds that are cytotoxic to HEK cells. [Related pubchem assays: 434962 (Primary screen (IDE inhibitors in singlicate)), 449730 (Counterscreen (Cytotoxicity in triplicate)), 435028 (Confirmation (IDE inhibitors in triplicate)) …; assay type: functional; conditions: HEK293
[13] = molecular target: T5, Sentrin-specific protease 1; test: Dose response confirmation of small molecule inhibitors of the catalytic domain of the SUMO protease, SENP1 in a FRET assay.; assay type: functional; conditions: read-out: IC50_Mean
[14] = molecular target: T7, Carboxy-terminal domain RNA polymerase II polypeptide A small phosphatase 1 (Homo sapiens, UniProt Q9GZU7); test: inhibitors of CTDSP1, concentration-response testing, biochemical assay, absorbance-based, actives from ultra-high-throughput screening (AID 540297); assay type: functional
T7 sequence (Q9GZU7 whole entry): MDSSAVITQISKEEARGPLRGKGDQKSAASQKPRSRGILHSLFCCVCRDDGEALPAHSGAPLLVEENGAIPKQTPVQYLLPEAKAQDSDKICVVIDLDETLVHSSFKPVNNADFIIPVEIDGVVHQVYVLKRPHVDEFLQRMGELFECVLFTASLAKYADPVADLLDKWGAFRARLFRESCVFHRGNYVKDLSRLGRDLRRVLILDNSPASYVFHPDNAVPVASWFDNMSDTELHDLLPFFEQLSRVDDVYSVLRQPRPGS

NS3 = NS3 (Hepatitis C virus, UniProt A3EZJ3); test: PubChem AID 2173; set-up: species or system Hepacivirus hominis
Chain of NS3 (A3EZJ3 whole entry): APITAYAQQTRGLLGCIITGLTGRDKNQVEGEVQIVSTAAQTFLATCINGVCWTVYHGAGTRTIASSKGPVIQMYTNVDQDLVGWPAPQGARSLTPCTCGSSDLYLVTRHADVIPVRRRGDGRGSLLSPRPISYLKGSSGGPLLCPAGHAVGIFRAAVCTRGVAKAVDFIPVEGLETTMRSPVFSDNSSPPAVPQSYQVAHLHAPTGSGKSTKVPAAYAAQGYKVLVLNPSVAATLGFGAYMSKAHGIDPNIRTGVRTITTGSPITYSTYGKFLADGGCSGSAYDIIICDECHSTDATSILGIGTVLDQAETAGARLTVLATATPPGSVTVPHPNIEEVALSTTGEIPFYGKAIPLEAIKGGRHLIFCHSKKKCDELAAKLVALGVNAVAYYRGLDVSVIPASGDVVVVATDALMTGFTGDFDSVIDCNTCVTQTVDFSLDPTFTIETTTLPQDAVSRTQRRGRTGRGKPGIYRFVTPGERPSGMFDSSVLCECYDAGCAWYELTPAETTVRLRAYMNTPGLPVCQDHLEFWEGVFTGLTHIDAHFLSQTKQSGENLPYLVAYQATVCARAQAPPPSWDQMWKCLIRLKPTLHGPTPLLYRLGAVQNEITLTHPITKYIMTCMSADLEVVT

[15] = Luminescence-based counterscreen assay for KLF5 inhibitors: dose response cell-based high throughput screening assay to identify cytotoxic compounds using the IEC-6 intestinal epithelial cell line. [Related pubchem assays: 1700 (Primary screen.), 1834 (Confirmation screen.), 1858 (Summary AID.), 1905 (Counterscreen.)]; assay type: functional

O=C(CCCn1c(=O)c2sccc2n(Cc2cc(=O)n3ccccc3n2)c1=O)NCc1ccco1
IC50 (cells): 36.6 µM (active)

Cc1ccc(N=C(S)NC(NC(=O)c2ccccc2)C(Cl)(Cl)Cl)c(C)c1 (stereo not drawn)
CC50 (HeLa): 47 µM (not active)

Cc1ccc2cc(C3C(C#N)=C(N)Oc4c3ccc3cccnc43)c(O)nc2c1 (stereo not drawn)
AC50 (INS1): 1.02 µM (active) | IC50 (Nonstructural protein 1): 14.3 µM (active) | EC50 [1]: > 38 µM (not active) | EC50 [2]: > 150 µM (inactive) | EC50 [3]: > 100 µM (active)

CCOc1ccc(S(=O)(=O)N2CCCCC2)c(C)c1C
IC50 [4]: 32.6 µM (not active) | EC50 (Ion channel NompC [5]): > 29.9 µM (not active) | EC50 (Ion channel NompC [6]): > 29.9 µM (not active) | EC50 (Mucolipin-3): 1.43 µM (active)

Cc1nn(CCc2nn[nH]n2)c2nc(-c3ccc(C4CCCCC4)cc3)cc(C(F)(F)F)c12
AC50 [7]: 3.83 µM (active) | AC50 [8]: 2.14 µM (active) | CC50 [9]: 34.4 µM (active) | IC50 [10]: 21.7 µM (active) | EC50 (Protein RecA): 38.1 µM (active)

Cc1c(-n2cc(C(=O)c3cc(Cl)ccc3O)cc(C#N)c2=O)c(=O)n(-c2ccccc2)n1C
IC50 [11]: 13 µM (active) | IC50 (Insulin-degrading enzyme): > 55.9 µM (not active) | IC50 [12]: > 55.7 µM (not active) | IC50 [13]: 7.48 µM (active)

Cc1ccc(C(=O)O)cc1-c1ccc(/C=C2\SC(=O)N(CC(=O)Nc3ccccc3)C2=O)o1
IC50 [14]: 2.75 µM (active) | IC50 (NS3): 5.39 µM (active)

COc1ccc(/C=N/NC(=O)CCn2c3ccccc3c3ccccc32)cc1O
IC50 [15]: 2.02 µM (active)
